We go through two molecules from patent US9657017B2, “Crystal form of (R)-praziquantel and preparation method and application thereof” (TONGLI BIOMEDICAL CO., LTD., priority 2013, dated 2017).

The conditions of data set [1]: rat, in vivo, po, 75 mg/kg. The text has this: Investigation on characteristic of the plasma concentrations of (R)-praziquantel crystal form in rats after oral administration, which was specifically as follow: […]
For the next data set, the system named is clonorchis sinensis. Put plainly: In vivo anti-parasitic activity in SD rats infected with clonorchis sinensis. How it is done:
Evaluation of in vivo anti-parasitic activity of (R)-praziquantel crystal form in SD rats infected with clonorchis sinensis, which was specifically as follow: Each of total 29 SD rats with 200˜300 g of body weight were given with 30 metacercariae of clonorchis sinensis via gavage intragastrically. On Day 35 post infection, fecal smear examination was conducted, and worm eggs of clonorchis sinensis were found in all of the smears which confirmed successful modeling. Subsequently, the rats were randomly divided into (R)-praziquantel group (n=14) and blank control group (n=15). […] Seven days after the end of the treatment, worms are recovered from the bile ducts under sterility condition. The averaged number of recovered worms, mean recovery rate of worms and cure rate after treatment were calculated, and the results are shown in Table 5.

The next data set concerns schistosoma japonicum. Put plainly: In vitro culture anti-schistosoma japonicum activity (worm activity inhibition). It is filed as cell-based. The conditions noted are these: for IC50: spasm or paralysis of schistosoma japonicum considered as active, in vitro culture 37° C., read-out: IC50 ± L95 (median inhibitory concentration, 95% confidence interval). How it is done:
Comparison of anti-schistosoma japonicum activity between the crystal forms of (R)-praziquantel and praziquantel in in vitro culture experiment, which was specifically as follow: […] An aliquot of the drug solution (5-50 μL) was transferred and diluted with culture medium (prepared by Tyrode's solution and calf serum at 9:1, pH 7.4, containing 100 IU/mL penicillin and 100 IU/mL streptomycin) to a desired concentration (0.0001-100 μg/mL). Japanese white rabbits and Kunming hybrid mice were infected with cercariae of schistosoma japonicum for 5-8 weeks. Under aseptic condition, mesenteric vein and liver were perfused with normal saline, and the recovered schistosomes were washed with Tyrode's solution twice and then transferred into culture medium and cultured at 37° C. for use. […] The worm activity and changes on body surface were observed under stereomicroscope and inverted microscope at room temperature. The active levels of worm were defined as below: • ++++ Worm twitching or rolling intensively; • +++ Worm wriggling or paroxysmally trembling frequently; • ++ Worm migrating freely with enterocinesia; • + Movement of worm weakened and enterocinesia disappeared; • ± No movement of worm was observed under stereomicroscope (×30), and slight movement of mouth and ventral suckers were observed under inverted microscope (×250); • − No movement of worm was observed under inverted microscope (×250); • wherein +++ and ++++ refer to worm excitement; ++ refers to normal worm activity; + and ± refers to inhibition of worm activity; worm was considered to death if the result was still negative after observing for 5 min.

Data set [2] in a line: Solubility of crystal forms in water and simulated gastric-intestinal fluid. The conditions noted are these: 25° C.; for solubility at 18 h: thermodynamic from solid. It is filed as physicochemical. How it is done:
About 2 mg of each compound was respectively placed in several glass vials, and pure water, simulated gastric fluid (SGF), simulated intestinal fluid under fasted status (FaSSIF), and simulated intestinal fluid under fed status (FeSSIF) were respectively added to prepare a final sample concentration of 2 mg/mL. The samples were sonicated to be dispersed evenly and then rotated 360 degree-wise to equilibrate for 18 hours at room temperature (25° C.). After the equilibration, the samples were visually inspected to check whether they were completely dissolved, and then filtrated through […] filter membrane. The resulted filtrate was diluted with suitable solvent for HPLC analysis.

Setting [3] is: 100 mg/kg gavage twice a day for two days.

Values after ≈ are worked out from the molar mass of the structure shown. Where two headings read alike, the source gives them in different places.

On to `O=C(C1CCCCC1)N1CC(=O)N2CCc3ccccc3[C@@H]2C1` [(R)-praziquantel crystal form, (R)-praziquantel], for which, in data set [1], the “area under plasma concentration-time curve” value turned out to be 3572 ± 1793 ng·h/mL, the peak plasma concentration was found to be 3132 ± 1440 ng/mL and the “time to reach peak plasma concentration” value came out at 15 min. In addition, in the data set on clonorchis sinensis (setting [3]), the Cure rate worked out at 100% and the “Mean recovery rate of worms” value is reported as 0%. Further, in the data set on clonorchis sinensis (100 mg/kg gavage twice a day for two days, 14 animals, worms recovered 7 days after treatment), the “No. of Cured animal” value is on record as 14. The “No. of Average of recovered worm, X ± SD” value in the data set with clonorchis sinensis (100 mg/kg gavage twice a day for two days, worms from bile ducts) worked out at 0. Besides, the “worm body in rat feces” value in the data set on clonorchis sinensis (treatment group) is “no worm body found”. In the data set with schistosoma japonicum (in vitro culture), the “effect on schistosoma japonicum worms” value was “induce contraction and paralysis”. In addition, the “IC50 relative to that of praziquantel crystal form” value in the data set on schistosoma japonicum (in vitro culture, P<0.01) is recorded as “⅕”. Besides, the IC50 in the data set with schistosoma japonicum was 8 ± 4 nM. This molecule yielded an Average solubility in data set [2] (FaSSIF (simulated intestinal fluid, fasted), equilibrated 18 hours) of 302 µg/mL. This molecule came in with an Average solubility in data set [2] (FeSSIF (simulated intestinal fluid, fed), equilibrated 18 hours) of 433 µg/mL. In addition, the Average solubility in data set [2] (SGF (simulated gastric fluid), equilibrated 18 hours) was 303 µg/mL. For the same molecule, in data set [2] (Water, equilibrated 18 hours), the Average solubility was 305 µg/mL.
For the molecule `O=C(C1CCCCC1)N1CC(=O)N2CCc3ccccc3C2C1` (racemic) [Praziquantel crystal form, praziquantel], the “effect on schistosoma japonicum worms” value in the data set on schistosoma japonicum (in vitro culture) was “induce contraction and paralysis”. Also, in the data set on schistosoma japonicum, the IC50 was determined as 42 ± 18 nM. Further, the solubility at 18 h was 193 µg/mL (≈ 618 µM) in data set [2] (FaSSIF (simulated intestinal fluid, fasted), equilibrated 18 hours, read-out: Average solubility); 313 µg/mL (≈ 1000 µM) in data set [2] (FeSSIF (simulated intestinal fluid, fed), equilibrated 18 hours, read-out: Average solubility); 192 µg/mL (≈ 615 µM) in data set [2] (SGF (simulated gastric fluid), equilibrated 18 hours, read-out: Average solubility); 199 µg/mL (≈ 637 µM) in data set [2] (Water, equilibrated 18 hours, read-out: Average solubility); 190 to 310 µg/mL (≈ 608 to 992 µM) in data set [2] (water, SGF, FaSSIF and FeSSIF, range over media, read-out: solubility in water and in simulated gastro-intestinal fluid).
